# Experimental data taken from ChEMBL document CHEMBL1158637, “Orally bioavailable dual MMP-1/MMP-14 sparing, MMP-13 selective alpha-sulfone hydroxamates” (Bioorg Med Chem Lett, 2010).
# Assays:
# [1] = Selectivity ratio of IC50 for MMP2 to IC50 for MMP13
# [2] = biological target: Collagenase 3 (Homo sapiens, UniProt P45452); assay: Inhibition of MMP13
# [3] = biological target: 72 kDa type IV collagenase (Homo sapiens, UniProt P08253); assay: Inhibition of MMP2
# [4] = biological target: T1, Matrilysin (Homo sapiens, UniProt P09237); assay: Inhibition of MMP7
# T1 sequence (P09237 whole entry): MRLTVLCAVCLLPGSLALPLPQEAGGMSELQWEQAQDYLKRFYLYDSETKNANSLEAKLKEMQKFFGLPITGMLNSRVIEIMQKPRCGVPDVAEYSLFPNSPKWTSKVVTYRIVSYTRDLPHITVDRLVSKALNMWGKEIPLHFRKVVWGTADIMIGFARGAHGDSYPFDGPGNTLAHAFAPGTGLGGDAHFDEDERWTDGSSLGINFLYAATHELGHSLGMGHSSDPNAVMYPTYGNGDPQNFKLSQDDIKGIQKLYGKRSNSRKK
# [5] = biological target: Interstitial collagenase (Homo sapiens, UniProt P03956); assay: Inhibition of MMP1
# [6] = biological target: Neutrophil collagenase (Homo sapiens, UniProt P22894); assay: Inhibition of MMP8
# [7] = biological target: Stromelysin-1 (Homo sapiens, UniProt P08254); assay: Inhibition of MMP3
# [8] = Half life in rat; format: ADME, organism-based; settings: in vivo
# [9] = Oral bioavailability in rat; format: ADME, organism-based; settings: in vivo
# Chain of 72 kDa type IV collagenase (P08253 whole entry): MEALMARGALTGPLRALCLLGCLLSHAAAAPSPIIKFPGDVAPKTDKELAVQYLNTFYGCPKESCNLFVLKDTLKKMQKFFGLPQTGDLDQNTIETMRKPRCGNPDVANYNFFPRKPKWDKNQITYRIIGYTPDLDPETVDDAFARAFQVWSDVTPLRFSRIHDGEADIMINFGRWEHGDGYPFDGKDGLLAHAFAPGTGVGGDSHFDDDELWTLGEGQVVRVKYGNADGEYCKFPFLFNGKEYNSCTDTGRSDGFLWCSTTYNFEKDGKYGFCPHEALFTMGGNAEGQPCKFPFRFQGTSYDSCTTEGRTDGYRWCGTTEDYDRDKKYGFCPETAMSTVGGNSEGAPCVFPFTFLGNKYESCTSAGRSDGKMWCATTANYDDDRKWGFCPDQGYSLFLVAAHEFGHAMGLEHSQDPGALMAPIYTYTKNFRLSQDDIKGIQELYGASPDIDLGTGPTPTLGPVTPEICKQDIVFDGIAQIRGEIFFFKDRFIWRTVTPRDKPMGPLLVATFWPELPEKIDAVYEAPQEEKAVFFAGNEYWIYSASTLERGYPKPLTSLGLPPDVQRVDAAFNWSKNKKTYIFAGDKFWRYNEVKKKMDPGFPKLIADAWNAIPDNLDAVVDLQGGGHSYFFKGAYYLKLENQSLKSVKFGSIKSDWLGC
# Chain of Stromelysin-1 (P08254 whole entry): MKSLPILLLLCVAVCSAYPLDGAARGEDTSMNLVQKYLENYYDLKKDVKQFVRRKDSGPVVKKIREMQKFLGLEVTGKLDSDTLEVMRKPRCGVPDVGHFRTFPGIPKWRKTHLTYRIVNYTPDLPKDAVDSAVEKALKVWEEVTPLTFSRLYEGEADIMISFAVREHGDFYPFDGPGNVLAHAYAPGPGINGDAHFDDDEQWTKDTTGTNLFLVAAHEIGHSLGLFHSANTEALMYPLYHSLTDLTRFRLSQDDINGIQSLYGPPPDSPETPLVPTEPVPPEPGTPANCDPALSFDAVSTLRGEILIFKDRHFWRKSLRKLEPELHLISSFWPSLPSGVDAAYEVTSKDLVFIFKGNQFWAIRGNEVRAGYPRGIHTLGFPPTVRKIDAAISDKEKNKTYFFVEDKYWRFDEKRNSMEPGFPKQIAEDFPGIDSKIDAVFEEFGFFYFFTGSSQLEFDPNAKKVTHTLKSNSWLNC
# Chain of Neutrophil collagenase (P22894 whole entry): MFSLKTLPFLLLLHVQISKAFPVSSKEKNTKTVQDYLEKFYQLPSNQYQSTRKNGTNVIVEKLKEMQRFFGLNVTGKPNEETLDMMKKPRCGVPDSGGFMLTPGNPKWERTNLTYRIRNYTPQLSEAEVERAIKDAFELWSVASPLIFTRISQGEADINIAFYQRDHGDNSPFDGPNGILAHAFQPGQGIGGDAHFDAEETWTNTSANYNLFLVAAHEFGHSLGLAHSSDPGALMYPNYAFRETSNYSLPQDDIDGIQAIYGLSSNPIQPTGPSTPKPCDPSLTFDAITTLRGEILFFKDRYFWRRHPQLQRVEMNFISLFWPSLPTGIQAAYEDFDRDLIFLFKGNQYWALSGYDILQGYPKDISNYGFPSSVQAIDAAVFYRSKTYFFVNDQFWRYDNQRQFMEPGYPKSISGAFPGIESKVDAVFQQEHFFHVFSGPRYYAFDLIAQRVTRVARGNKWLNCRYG
# Chain of Interstitial collagenase (P03956 whole entry): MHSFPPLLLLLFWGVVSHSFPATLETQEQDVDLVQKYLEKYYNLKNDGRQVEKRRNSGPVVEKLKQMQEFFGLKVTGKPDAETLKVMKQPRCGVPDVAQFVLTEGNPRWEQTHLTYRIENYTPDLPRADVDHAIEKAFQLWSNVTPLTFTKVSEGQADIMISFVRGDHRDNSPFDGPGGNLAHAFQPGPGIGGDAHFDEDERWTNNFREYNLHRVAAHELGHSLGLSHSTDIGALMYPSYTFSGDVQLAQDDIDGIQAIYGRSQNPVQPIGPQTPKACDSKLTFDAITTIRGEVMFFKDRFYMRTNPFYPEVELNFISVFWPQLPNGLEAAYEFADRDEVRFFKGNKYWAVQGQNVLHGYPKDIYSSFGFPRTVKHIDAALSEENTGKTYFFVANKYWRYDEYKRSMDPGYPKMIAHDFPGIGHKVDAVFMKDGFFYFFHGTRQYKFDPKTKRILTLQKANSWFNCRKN
Ratio IC50 [1],IC50 [2] [nM],IC50 [3] [nM],Structure (SMILES),other results
1.9,42.5,82,O=C(NO)C1(S(=O)(=O)c2ccc(N3CCC(c4ccccc4Cl)CC3)cc2)CCOCC1,
0.7,,,O=C(NO)C1(S(=O)(=O)c2ccc(N3CCC(c4ccccc4)CC3)cc2)CCOCC1,
72.1,,,COc1ccc(C2CCN(c3ccc(S(=O)(=O)C4(C(=O)NO)CCOCC4)cc3)CC2)c(C)c1,
43.9,,,O=C(NO)C1(S(=O)(=O)c2ccc(N3CCC(c4cccc5ccccc45)CC3)cc2)CCOCC1,
159,,,COc1ccc(C2CCN(c3ccc(S(=O)(=O)C4(C(=O)NO)CCOCC4)cc3)CC2)c(OC)c1,
21.4,32.7,700,Cc1ccccc1C1CCN(c2ccc(S(=O)(=O)C3(C(=O)NO)CCOCC3)cc2)CC1,
6.2,,,O=C(NO)C1(S(=O)(=O)c2ccc(N3CCC(c4ccccc4O)CC3)cc2)CCOCC1,
211,17.5,3700,COc1ccccc1C1CCN(c2ccc(S(=O)(=O)C3(C(=O)NO)CCOCC3)cc2)CC1,
70.2,11.4,800,COc1ccc(OC)c(C2CCN(c3ccc(S(=O)(=O)C4(C(=O)NO)CCOCC4)cc3)CC2)c1,
2.9,,,O=C(NO)C1(S(=O)(=O)c2ccc(N3CCC(c4ccc(Cl)cc4)CC3)cc2)CCOCC1,
160,,,O=C(NO)C1(S(=O)(=O)c2ccc(N3CCC(c4ccccc4-c4ccc(F)cc4)CC3)cc2)CCOCC1,

# The next lines start with the compound.
Structure (SMILES),Ratio IC50 [1],IC50 [2] [nM],IC50 [3] [nM],other results
Cc1ccccc1N1CCN(c2ccc(S(=O)(=O)C3(C(=O)NO)CCOCC3)cc2)CC1,11.4,,,
COc1cccc(N2CCN(c3ccc(S(=O)(=O)C4(C(=O)NO)CCOCC4)cc3)CC2)c1,6.1,8,48.5,
Cc1ccc(N2CCN(c3ccc(S(=O)(=O)C4(C(=O)NO)CCOCC4)cc3)CC2)cc1,18.4,,,
O=C(NO)C1(S(=O)(=O)c2ccc(N3CCN(c4ccc(C(F)(F)F)cc4)CC3)cc2)CCN(C2CC2)CC1,13.6,2.4,32.6,
O=C(NO)C1(S(=O)(=O)c2ccc(N3CCN(c4ccccc4)CC3)cc2)CCOCC1,13.8,,,
O=C(NO)C1(S(=O)(=O)c2ccc(N3CCC(c4ccccc4C(F)(F)F)CC3)cc2)CCOCC1,31.3,,,
CCOc1ccccc1C1CCN(c2ccc(S(=O)(=O)C3(C(=O)NO)CCOCC3)cc2)CC1,88.6,,,
C#CCN1CCC(C(=O)NO)(S(=O)(=O)c2ccc(Sc3ccccc3)cc2)CC1,,,0.33,IC50 [4]: > 10000 nM; IC50 [5]: 8660 nM; IC50 [6]: 1.8 nM; IC50 [7]: 13 nM
O=C(NO)C1(S(=O)(=O)c2ccc(N3CCN(c4ccc(Cl)cc4)CC3)cc2)CCOCC1,,1,3.7,half-life [8]: 1.91 h; bioavailability [9]: 7.4%; IC50 [5]: > 10000 nM; IC50 [6]: 1000 nM; IC50 [7]: 130 nM
Cc1ccc(N2CCN(c3ccc(S(=O)(=O)C4(C(=O)NO)CCOCC4)cc3)CC2)c(C)c1,49,28.6,1400,
O=C(NO)C1(S(=O)(=O)c2ccc(N3CCN(c4ccccc4Cl)CC3)cc2)CCOCC1,4.4,,,
COc1ccc(N2CCN(c3ccc(S(=O)(=O)C4(C(=O)NO)CCOCC4)cc3)CC2)cc1,29,0.5,18.4,
O=C(NO)C1(S(=O)(=O)c2ccc(N3CCN(c4ccc(C(F)(F)F)cc4)CC3)cc2)CCOCC1,,0.6,12.1,half-life [8]: 2.59 h; IC50 [4]: > 10000 nM; bioavailability [9]: 16.3%; IC50 [5]: > 10000 nM; IC50 [6]: 670 nM; IC50 [7]: 300 nM
O=C(NO)C1(S(=O)(=O)c2ccc(N3CCN(c4ccccc4)CC3)cc2)CCN(C2CC2)CC1,1.6,3.3,5.4,
COc1ccc(C(C)C)cc1C1CCN(c2ccc(S(=O)(=O)C3(C(=O)NO)CCOCC3)cc2)CC1,143,70,> 10000,
O=C(NO)C1(S(=O)(=O)c2ccc(N3CCN(c4ccccc4F)CC3)cc2)CCOCC1,7.8,,,
O=C(NO)C1(S(=O)(=O)c2ccc(N3CCN(c4cccc(C(F)(F)F)c4)CC3)cc2)CCOCC1,16.5,20,330,
COc1ccc(N2CCN(c3ccc(S(=O)(=O)C4(C(=O)NO)CCN(C5CC5)CC4)cc3)CC2)cc1,,0.42,5.3,half-life [8]: 0.24 h; bioavailability [9]: 20.7%; IC50 [5]: > 10000 nM; IC50 [6]: 59.2 nM; IC50 [7]: 24.5 nM
COc1ccccc1N1CCN(c2ccc(S(=O)(=O)C3(C(=O)NO)CCOCC3)cc2)CC1,2.8,,,
